# Reference: the NIST ThermoML archive (doi:10.1016/j.fluid.2005.09.010)
# Numbers after ± are expanded uncertainties.
# Conditions: Liquid; for mass density: 298.15 K, 101.33 kPa
mass density [kg/m3],vapor or sublimation pressure (375.52 K) [kPa],vapor or sublimation pressure (322.4 K) [kPa],vapor or sublimation pressure (353.2 K) [kPa],vapor or sublimation pressure (353.85 K) [kPa],SMILES
1027.85 ± 0.23,101.3 ± 4.1,–,–,–,"C1COCCO1 [1,4-dioxane]"
739.74 ± 0.79,–,101.3 ± 4.1,–,–,C1CCCC1 [cyclopentane]
873.55 ± 0.22,–,–,101.3 ± 4.1,–,c1ccccc1 [benzene]
773.65 ± 0.32,–,–,–,101.3 ± 4.1,C1CCCCC1 [cyclohexane]
